Key:
Assay in all cases: relative viability (nuclei count vs DMSO), 5 days (fraction); higher = more cells survive
Apatinib + Trametinib = compound: N#CC1(c2ccc(NC(=O)c3cccnc3NCc3ccncc3)cc2)CCCC1 [Apatinib] + CC(=O)Nc1cccc(-n2c(=O)n(C3CC3)c(=O)c3c(Nc4ccc(I)cc4F)n(C)c(=O)c(C)c32)c1 [Trametinib] (partner 0.02 µM)
Summary of the method: (§1)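 Lung cancer cell lines were pin-tool dosed in 1536-well plates on the day after seeding, with either a lone drug or a fixed anchor-drug dose plus five library-drug doses (not always all listed) in √10 steps. Nuclei were counted on 4× images after 5 days. Relative viability is the ratio of treated-well to vehicle-well nuclei counts, with each value a median of duplicate plates.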

Apatinib + Pemetrexed = compound: N#CC1(c2ccc(NC(=O)c3cccnc3NCc3ccncc3)cc2)CCCC1 [Apatinib] + Nc1nc2[nH]cc(CCc3ccc(C(=O)N[C@@H](CCC(=O)O)C(=O)O)cc3)c2c(=O)[nH]1 [Pemetrexed] (partner 0.2 µM)
Summary of the method: as §1

Apatinib + Foretinib = compound: N#CC1(c2ccc(NC(=O)c3cccnc3NCc3ccncc3)cc2)CCCC1 [Apatinib] + COc1cc2c(Oc3ccc(NC(=O)C4(C(=O)Nc5ccc(F)cc5)CC4)cc3F)ccnc2cc1OCCCN1CCOCC1 [Foretinib] (partner 0.25 µM)
Summary of the method: as §1

Metformin + Pemetrexed = compound: CN(C)C(=N)NC(=N)N [Metformin] + Nc1nc2[nH]cc(CCc3ccc(C(=O)N[C@@H](CCC(=O)O)C(=O)O)cc3)c2c(=O)[nH]1 [Pemetrexed] (partner 0.2 µM)
Summary of the method: as §1

Cell Line	relative viability (Apatinib + Trametinib; first compound 0.08 µM)	relative viability (Apatinib + Trametinib; first compound 0.253 µM)	relative viability (Apatinib + Trametinib; first compound 0.8 µM)	relative viability (Apatinib + Trametinib; first compound 2.53 µM)	relative viability (Apatinib + Trametinib; first compound 8 µM)	relative viability (Apatinib + Pemetrexed; first compound 0.08 µM)	relative viability (Apatinib + Pemetrexed; first compound 0.253 µM)	relative viability (Apatinib + Pemetrexed; first compound 0.8 µM)	relative viability (Apatinib + Pemetrexed; first compound 2.53 µM)	relative viability (Apatinib + Pemetrexed; first compound 8 µM)	relative viability (Apatinib + Foretinib; first compound 0.08 µM)	relative viability (Apatinib + Foretinib; first compound 0.253 µM)	relative viability (Apatinib + Foretinib; first compound 0.8 µM)	relative viability (Apatinib + Foretinib; first compound 2.53 µM)	relative viability (Apatinib + Foretinib; first compound 8 µM)	relative viability (Metformin + Pemetrexed; first compound 10 µM)	relative viability (Metformin + Pemetrexed; first compound 31.62 µM)	relative viability (Metformin + Pemetrexed; first compound 100 µM)	relative viability (Metformin + Pemetrexed; first compound 316.23 µM)	relative viability (Metformin + Pemetrexed; first compound 1000 µM)
SK-MES-1	0.585	0.642	0.567	0.64	0.514	0.976	0.915	0.937	0.757	0.568	1.02	0.935	0.967	0.838	0.896	0.532	0.721	0.805	0.662	0.708
NCI-H2085	0.608	0.53	0.39	0.576	0.426	0.949	0.777	0.876	0.823	0.782	0.991	1.05	0.79	0.854	0.817	0.917	0.815	0.904	0.881	0.955
ChaGo-K-1	0.902	0.93	0.862	0.837	0.691	0.27	0.249	0.263	0.24	0.245	0.991	1	0.942	0.851	0.745	0.259	0.277	0.259	0.257	0.256
SK-LU-1	0.498	0.541	0.545	0.495	0.446	1.09	0.995	0.918	0.544	0.32	1.01	0.857	0.859	0.719	0.732	0.853	0.956	0.97	0.892	0.905
COR-L23	0.721	0.666	0.574	0.466	0.376	0.194	0.191	0.192	0.199	0.177	1.03	0.952	0.926	0.903	0.836	0.196	0.186	0.209	0.195	0.203
COR-L 105	0.476	0.418	0.371	0.436	0.431	1.27	1.21	1.04	0.895	1.05	1.36	1.11	1.23	0.768	0.849	1.12	1.26	1.33	1.29	1.1
PC-3 [JPC-3]		0.786	0.553	0.646	0.654		1.05	1.05	0.726	0.807	1.02	1	0.986	0.925	0.853	1.12	1.08		0.897	0.705
H3255	0.655	0.588	0.669	0.597	0.535	0.521	0.545	0.537	0.518	0.533	0.973	0.795	0.757	0.753	0.675	0.55	0.556	0.567	0.5	0.564

— the supplement of paper PMC10307832
